target: T1, recombinant human NAE enzyme (Homo sapiens, UniProt Q8TBC4); assay: Nedd8-Activating Enzyme (NAE) HTRF Assay; type: biochemical; conditions: 20 μM ATP, bound given in nM
T1 construct: His (N); made in house; host or cells: Sf9 insect cells (baculovirus, Bac-to-Bac)
T1 sequence (Q8TBC4 1-463): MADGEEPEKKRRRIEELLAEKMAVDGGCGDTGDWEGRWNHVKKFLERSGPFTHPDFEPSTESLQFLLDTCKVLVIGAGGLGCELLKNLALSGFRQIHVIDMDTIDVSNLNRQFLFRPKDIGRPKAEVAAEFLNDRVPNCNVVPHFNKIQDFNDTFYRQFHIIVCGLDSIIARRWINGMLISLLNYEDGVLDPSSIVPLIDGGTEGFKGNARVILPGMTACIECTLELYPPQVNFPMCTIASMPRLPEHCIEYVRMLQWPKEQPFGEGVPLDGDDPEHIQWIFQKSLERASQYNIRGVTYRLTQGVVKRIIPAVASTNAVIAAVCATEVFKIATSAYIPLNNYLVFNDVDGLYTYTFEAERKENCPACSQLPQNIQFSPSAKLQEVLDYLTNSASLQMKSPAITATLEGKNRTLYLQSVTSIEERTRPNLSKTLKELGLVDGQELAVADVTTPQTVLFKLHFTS
T1 sequence (Q13564 1-534 partner): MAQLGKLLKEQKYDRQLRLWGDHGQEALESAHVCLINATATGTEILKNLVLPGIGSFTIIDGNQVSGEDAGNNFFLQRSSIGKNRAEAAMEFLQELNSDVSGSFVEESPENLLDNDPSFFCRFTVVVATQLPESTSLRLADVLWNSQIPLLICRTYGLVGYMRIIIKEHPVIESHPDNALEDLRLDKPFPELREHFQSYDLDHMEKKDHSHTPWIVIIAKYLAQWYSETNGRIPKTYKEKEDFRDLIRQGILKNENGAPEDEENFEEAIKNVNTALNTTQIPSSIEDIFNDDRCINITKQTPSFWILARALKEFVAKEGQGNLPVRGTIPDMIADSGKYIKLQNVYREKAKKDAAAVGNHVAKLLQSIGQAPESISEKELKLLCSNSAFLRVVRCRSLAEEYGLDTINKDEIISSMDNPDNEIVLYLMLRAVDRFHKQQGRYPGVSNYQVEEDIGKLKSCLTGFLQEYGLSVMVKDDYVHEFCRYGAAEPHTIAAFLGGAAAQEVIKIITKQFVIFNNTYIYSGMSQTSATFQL
Protocol: Following manufacturer instructions, baculoviruses were generated with the Bac-to-Bac Expression System (Invitrogen) for the following proteins: untagged NAEα (APPBP1; NP_003896.1), N-terminally His-tagged NAEJ (UBE1C; NP_003959.3), untagged SAEα (SAE1; NP_005491.1), N-terminally His-tagged SAE3 (UBA2; NP_005490.1), N-terminally His-tagged murine UAE (UBE1X; NP_033483). NAEα/His-NAEβ and SAEα/His-SAEβ complexes were generated by co-infection of Sf9 cells, which were harvested after 48 hours. His-mUAE was generated by single infection of Sf9 cells and harvested after 72 hours. Expressed proteins were purified by affinity chromatography (Ni-NTA agarose, Qiagen) using standard buffers. Nedd8-Activating Enzyme (NAE) HTRF Assay. The NAE enzymatic reaction totaled 50 μL and contained 50 mM HEPES (pH 7.5), 0.05% BSA, 5 mM MgCl2, 20 μM ATP, 250 μM GSH, 0.01 μM Ubc12-GST, 0.075 μM Nedd8-Flag and 0.20 nM recombinant human NAE enzyme. The enzymatic reaction mixture, with and without compound inhibitor, was incubated at room temperature 24° C. for 105 minutes in a 384-well plate before termination with 25 μL of Stop/Detection buffer (0.1M HEPES pH 7.5, 0.05% Tween20, 20 mM EDTA, 410 mM KF, 0.53 nM Europium-Cryptate labeled monoclonal anti-FLAG M2 antibody (CisBio International) and 8.125 μg/mL PHYCOLINK goat anti-GST allophycocyanin (XL-APC) antibody (Prozyme)). After incubation for 1 hour at 24° C., quantification of the FRET was performed on the Analyst™ HT 96.384 (Molecular Devices).

SMILES	IC50 [nM]
NS(=O)(=O)OC[C@H]1C[C@@H](Nc2cc(N[C@H]3CCc4c(F)cccc43)ncn2)[C@H](O)[C@@H]1O [Compound I-1, {(1R,2R,3S,4R)-4-[(6-{[(1S)-4-fluoro-2,3-dihydro-1H-inden-1-yl]amino}-pyrimidin-4-yl)-amino]-2,3-dihydroxycyclopentyl}methyl sulfamate]	≤ 500
CO[C@H]1Cc2ccccc2[C@H]1Nc1cc(N[C@@H]2C[C@H](COS(N)(=O)=O)[C@@H](O)[C@H]2O)ncn1 [Compound I-2, {(1R,2R,3S,4R)-2,3-dihydroxy-4-[(6-{[(1R,2S)-2-methoxy-2,3-dihydro-1H-inden-1-yl]-amino}pyrimidin-4-yl)amino]cyclopentyl}methyl sulfamate]	≤ 500
NS(=O)(=O)OC[C@H]1C[C@@H](Nc2ncnc3[nH]cnc23)[C@H](O)[C@@H]1O [Compound I-3, [(1R,2R,3S,4R)-2,3-dihydroxy-4-(9H-purin-6-ylamino)cyclopentyl]methyl sulfamate]	≤ 500
NS(=O)(=O)OC[C@H]1C[C@@H](Nc2ccnc(NCC3CCCCC3)n2)[C@H](O)[C@@H]1O [Compound I-4, [(1R,2R,3S,4R)-4-({2-[(cyclohexylmethyl)amino]pyrimidin-4-yl}amino)-2,3-dihydroxycyclopentyl]methyl sulfamate]	> 500
NS(=O)(=O)OC[C@@H]1C[C@@H](Nc2cc(N[C@H]3CCc4ccccc43)ncn2)C[C@@H]1O [Compound I-5, [(1S,2S,4R)-4-({6-[(1S)-2,3-dihydro-1H-inden-1-ylamino]pyrimidin-4-yl}amino)-2-hydroxycyclopentyl]methyl sulfamate]	≤ 500
NS(=O)(=O)OC[C@H]1C[C@@H](Nc2cc(N[C@H]3CCc4c(F)ccc(F)c43)ncn2)[C@H](O)[C@@H]1O [Compound I-6, {(1R,2R,3S,4R)-4-[(6-{[(1S)-4,7-difluoro-2,3-dihydro-1H-inden-1-yl]amino}-pyrimidin-4-yl)amino]-2,3-dihydroxycyclopentyl}methyl sulfamate]	≤ 500
NS(=O)(=O)OC[C@H]1C[C@@H](Nc2ccnc(NCc3ccccc3)n2)[C@H](O)[C@@H]1O [Compound I-7, ((1R,2R,3S,4R)-4-{[2-(benzylamino)pyrimidin-4-yl]amino}-2,3-dihydroxycyclopentyl)methyl sulfamate]	> 500
NS(=O)(=O)OC[C@H]1C[C@@H](Nc2cc(N[C@@H]3CCc4ccccc43)ncn2)[C@H](O)[C@@H]1O [Compound I-8, [(1R,2R,3S,4R)-4-({6-[(1R)-2,3-dihydro-1H-inden-1-ylamino]pyrimidin-4-yl}-amino)-2,3-dihydroxycyclopentyl]methyl sulfamate]	≤ 500
NS(=O)(=O)OC[C@H]1C[C@@H](Nc2ncnc3[nH]c(-c4ccccc4)nc23)[C@H](O)[C@@H]1O [Compound I-9, {(1R,2R,3S,4R)-2,3-dihydroxy-4-[(8-phenyl-9H-purin-6-yl)amino]cyclopentyl}-methyl sulfamate]	≤ 500
CC1CC(Nc2nccc(N[C@@H]3C[C@H](COS(N)(=O)=O)[C@@H](O)[C@H]3O)n2)c2ccccc21 (stereo partly drawn) [Compound I-10, [(1R,2R,3S,4R)-2,3-dihydroxy-4-({2-[(3-methyl-2,3-dihydro-1H-inden-1-yl)-amino]pyrimidin-4-yl}amino)cyclopentyl]methyl sulfamate]	≤ 500
NS(=O)(=O)OC[C@@H]1C[C@@H](Nc2cc(N[C@H]3CCc4ccccc43)ncn2)[C@H](O)[C@@H]1O [Compound I-11, [(1S,2R,3S,4R)-4-({6-[(1S)-2,3-dihydro-1H-inden-1-ylamino]pyrimidin-4-yl}-amino)-2,3-dihydroxycyclopentyl]methyl sulfamate]	≤ 500
NS(=O)(=O)OC[C@H]1C[C@@H](Nc2cc(N[C@H]3CCCc4ccccc43)ncn2)[C@H](O)[C@@H]1O [Compound I-12, [(1R,2R,3S,4R)-2,3-dihydroxy-4-({6-[(1S)-1,2,3,4-tetrahydronaphthalen-1-ylamino]pyrimidin-4-yl}amino)cyclopentyl]methyl sulfamate]	≤ 500
NS(=O)(=O)OC[C@H]1C[C@@H](Nc2cc(NCC3CCCCC3)ncn2)[C@H](O)[C@@H]1O [Compound I-14, [(1R,2R,3S,4R)-4-({6-[(cyclohexylmethyl)amino]pyrimidin-4-yl}amino)-2,3-dihydroxycyclopentyl]methyl sulfamate]	≤ 500
CC1(C)C[C@H](Nc2nccc(N[C@@H]3C[C@H](COS(N)(=O)=O)[C@@H](O)[C@H]3O)n2)c2ccccc21 [Compound I-15, {(1R,2R,3S,4R)-4-[(2-{[(1S)-3,3-dimethyl-2,3-dihydro-1H-inden-1-yl]amino}-pyrimidin-4-yl)amino]-2,3-dihydroxycyclopentyl}methyl sulfamate]	≤ 500
NS(=O)(=O)OC[C@H]1C[C@@H](NC(=O)c2cccnc2)[C@H](O)[C@@H]1O [Compound I-16, {(1R,2R,3S,4R)-2,3-dihydroxy-4-[(pyridin-3-ylcarbonyl)amino]cyclopentyl}-methyl sulfamate]	> 500
NS(=O)(=O)OC[C@H]1C[C@@H](Nc2cc(N[C@H]3CCc4cc(F)c(F)cc43)ncn2)[C@H](O)[C@@H]1O [Compound I-17, {(1R,2R,3S,4R)-4-[(6-{[(1S)-5,6-difluoro-2,3-dihydro-1H-inden-1-yl]amino}-pyrimidin-4-yl)amino]-2,3-dihydroxycyclopentyl}methyl sulfamate]	≤ 500
Cc1nc(N[C@H]2CCc3ccccc32)cc(N[C@@H]2C[C@H](COS(N)(=O)=O)[C@@H](O)[C@H]2O)n1 [Compound I-18, [(1R,2R,3S,4R)-4-({6-[(1S)-2,3-dihydro-1H-inden-1-ylamino]-2-methylpyrimidin-4-yl}-amino)-2,3-dihydroxycyclopentyl]methyl sulfamate]	≤ 500
NS(=O)(=O)OC[C@H]1C[C@@H](Nc2cc(N[C@H]3CCc4cc(Cl)ccc43)ncn2)[C@H](O)[C@@H]1O [Compound I-19, {(1R,2R,3S,4R)-4-[(6-{[(1S)-5-chloro-2,3-dihydro-1H-inden-1-yl]amino}-pyrimidin-4-yl)-amino]-2,3-dihydroxycyclopentyl}methyl sulfamate]	≤ 500
CC1(C)C[C@H](Nc2cc(N[C@@H]3C[C@H](COS(N)(=O)=O)[C@@H](O)[C@H]3O)ncn2)c2ccccc21 [Compound I-21, {(1R,2R,3S,4R)-4-[(6-{[(1S)-3,3-dimethyl-2,3-dihydro-1H-inden-1-yl]amino}-pyrimidin-4-yl)amino]-2,3-dihydroxycyclopentyl}methyl sulfamate]	≤ 500

same assay, conditions: 20 μM ATP, bound given in μM

SMILES	IC50 [nM]
NS(=O)(=O)OC[C@H]1C[C@@H](Nc2ccnc(NCC3CCCCC3)n2)[C@H](O)[C@@H]1O [Compound I-4, [(1R,2R,3S,4R)-4-({2-[(cyclohexylmethyl)amino]pyrimidin-4-yl}amino)-2,3-dihydroxycyclopentyl]methyl sulfamate]	< 10000
NS(=O)(=O)OC[C@H]1C[C@@H](Nc2ccnc(NCc3ccccc3)n2)[C@H](O)[C@@H]1O [Compound I-7, ((1R,2R,3S,4R)-4-{[2-(benzylamino)pyrimidin-4-yl]amino}-2,3-dihydroxycyclopentyl)methyl sulfamate]	< 10000
Cc1nc(N)cc(N[C@@H]2C[C@H](COS(N)(=O)=O)[C@@H](O)[C@H]2O)n1 [Compound I-13, {(1R,2R,3S,4R)-4-[(6-amino-2-methylpyrimidin-4-yl)amino]-2,3-dihydroxycyclopentyl}methyl sulfamate]	> 10000
NS(=O)(=O)OC[C@H]1C[C@@H](NC(=O)c2cccnc2)[C@H](O)[C@@H]1O [Compound I-16, {(1R,2R,3S,4R)-2,3-dihydroxy-4-[(pyridin-3-ylcarbonyl)amino]cyclopentyl}-methyl sulfamate]	< 10000
CN(Cc1ccccc1)c1nccc(N[C@@H]2C[C@H](COS(N)(=O)=O)[C@@H](O)[C@H]2O)n1 [Compound I-20, [(1R,2R,3S,4R)-4-({2-[benzyl(methyl)amino]pyrimidin-4-yl}amino)-2,3-dihydroxycyclopentyl]methyl sulfamate]	> 10000
CN(Cc1ccccc1)c1cc(N[C@@H]2C[C@H](COS(N)(=O)=O)[C@@H](O)[C@H]2O)ncn1 [Compound I-22, [(1R,2R,3S,4R)-4-({6-[benzyl(methyl)amino]pyrimidin-4-yl}amino)-2,3-dihydroxycyclopentyl]methyl sulfamate]	> 10000

— patent US9718788B2, “Heteroaryl compounds useful as inhibitors of E1 activating enzymes” (MILLENNIUM PHARMACEUTICALS, INC., priority 2006, dated 2017)
